*1 amine or outer side, *2 acyl side, *3 side chain or, on linkers, in order; H or OH if unused. Where a SMILES comes first, the peptide text is derived from it. Bridges are numbered along the chain shown (N, C = ends). [ ]: non-standard residue; d: D form. The star is where a group is joined. C20 diacid = O=C(O)CCCCCCCCCCCCCCCCCCC(=O)*; γGlu = O=C(O)[C@H](CCC(=O)[*:2])N[*:1]; Hyp = O=C(O)[C@@H]1C[C@@H](O)CN1; NMeI = CC[C@H](C)[C@H](NC)C(=O)O; Aad = N[C@@H](CCCC(=O)O)C(=O)O; Sar = CNCC(=O)O
Key:
[1] = biological target: T1, human amylin receptor 3 (hAMYR3), hCTR2 co-expressed with hRAMP3 (Homo sapiens, UniProt O60896+P30988); experiment: hAMYR3 cAMP assay (AlphaScreen) in COS7 cells; type: cell-based; conditions: cAMP induction, COS7 cells expressing hAMYR3; Table 1; read-out: hAMYR3 EC50
T1 construct: expressed in transfected cells
T1 sequence (P30988 25-474): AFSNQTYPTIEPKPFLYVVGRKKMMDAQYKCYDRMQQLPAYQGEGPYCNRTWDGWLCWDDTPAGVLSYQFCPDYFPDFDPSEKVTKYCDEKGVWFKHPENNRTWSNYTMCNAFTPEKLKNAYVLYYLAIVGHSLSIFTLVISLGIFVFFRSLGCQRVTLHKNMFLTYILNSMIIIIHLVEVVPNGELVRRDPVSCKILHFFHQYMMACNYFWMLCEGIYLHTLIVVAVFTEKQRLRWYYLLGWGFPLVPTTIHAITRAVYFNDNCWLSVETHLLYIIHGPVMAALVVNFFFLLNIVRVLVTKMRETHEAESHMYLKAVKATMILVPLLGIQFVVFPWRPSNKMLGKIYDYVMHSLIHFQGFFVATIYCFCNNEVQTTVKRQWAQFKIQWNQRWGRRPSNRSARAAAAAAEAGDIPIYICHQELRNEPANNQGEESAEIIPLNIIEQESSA
T1 sequence (O60896 24-148 partner): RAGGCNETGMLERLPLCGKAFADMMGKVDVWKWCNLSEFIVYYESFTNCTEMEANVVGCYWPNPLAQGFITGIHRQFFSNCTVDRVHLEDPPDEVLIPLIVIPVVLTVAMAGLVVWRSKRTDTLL
Summary of the method: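 EC50 values derive from 4PL curve fits of cAMP (AlphaScreen) in lysates of RAMP-naive COS7 cells stably carrying hCTR2 plus hRAMP3. Peptide dilution series were applied for 15 min at 37 °C in pH 7.4 Tyrode buffer containing 100 µM IBMX and 0.1% casein.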

[2] = biological target: T2, human calcitonin receptor (hCTR2) (Homo sapiens, UniProt P30988); experiment: hCTR2 cAMP assay (AlphaScreen) in COS7 cells; type: cell-based; conditions: cAMP induction, COS7 cells expressing hCTR2; Table 1; read-out: hCTR2 EC50
T2 construct: expressed in transfected cells
T2 sequence (P30988 25-474): T1 sequence (P30988 25-474)
Summary of the method: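 cAMP induction, read by AlphaScreen after lysis, gives EC50 values via 4PL curve fitting. Peptides were applied at rising concentrations for 15 min at 37 °C, with IBMX and 0.1% casein in HEPES-buffered Tyrode pH 7.4, to COS7 cells (no endogenous RAMPs) stably expressing human CTR2.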

[3] = Assessment of chemical stability (RP-HPLC normalized purity); type: physicochemical; conditions: for Normalized purity after 7 days, 40° C., pH 4: pH 4, 0.2 mg/ml; for Normalized purity after 7 days, 40° C., pH 4 / Normalized purity after 7 days, 40° C., pH 6 / Normalized purity after 7 days, 40° C., pH 7.5 / Normalized purity after 7 days, 40° C., pH 9: Table 1; for Normalized purity after 7 days, 40° C., pH 6: pH 6, 0.2 mg/ml; for Normalized purity after 7 days, 40° C., pH 7.5: pH 7.5, 0.2 mg/ml; for Normalized purity after 7 days, 40° C., pH 9: pH 9, 0.2 mg/ml; for Normalized purity pH 4 (Table 5): pH 4, repeat of Example 6 for pairs with/without Asn-Asn at 21-22; for Normalized purity pH 6 (Table 5): pH 6, repeat of Example 6 for pairs with/without Asn-Asn at 21-22; for Normalized purity pH 7.5 (Table 5): pH 7.5, repeat of Example 6 for pairs with/without Asn-Asn at 21-22; for Normalized purity pH 9 (Table 5): pH 9, repeat of Example 6 for pairs with/without Asn-Asn at 21-22
Summary of the method: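 Purity after 7 days at 40° C is expressed relative to T=0 (set to 100) for each pH. Samples at 0.2 mg/ml, pH 4, 6, 7.5 or 9, analyzed by RP-HPLC with UV 220 nm on C8 (ammonium formate) or C18 (TFA) gradients.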

Row | EC50 [1] [nM] | EC50 [2] [nM] | Normalized purity after 7 days, 40° C., pH 4 [3] | Normalized purity after 7 days, 40° C., pH 6 [3] | Normalized purity after 7 days, 40° C., pH 7.5 [3] | Normalized purity after 7 days, 40° C., pH 9 [3] | Normalized purity pH 4 (Table 5) [3] | Normalized purity pH 6 (Table 5) [3] | Normalized purity pH 7.5 (Table 5) [3] | Normalized purity pH 9 (Table 5) [3] | Compound
1 | 0.36 | 0.21 | A (A = >90%) | A (A = >90%) | B (B = 70-90%) | B (B = 70-90%) |  |  |  |  | CC[C@H](C)[C@@H](C(=O)N[C@@H](CC(C)C)C(=O)N[C@@H](CO)C(=O)N[C@@H](CO)C(=O)N[C@H](C(=O)N[C@@H](CCC(=O)O)C(=O)N[C@H](C(=O)NCC(=O)N[C@@H](CO)C(=O)N[C@@H](CO)C(=O)N[C@H](C(=O)N1CCC[C@H]1C(N)=O)[C@@H](C)O)C(C)C)[C@@H](C)O)N(C)C(=O)[C@H](C)NC(=O)CN(C)C(=O)[C@H](Cc1ccccc1)NC(=O)[C@H](CO)NC(=O)[C@H](CO)NC(=O)[C@H](CCCNC(=N)N)NC(=O)[C@H](CCC(=O)O)NC(=O)[C@H](CC(C)C)NC(=O)[C@H](Cc1ccccc1)NC(=O)[C@H](Cc1c[nH]cn1)NC(=O)[C@H](C)NC(=O)[C@H](CC(C)C)NC(=O)[C@H](CCCNC(=N)N)NC(=O)[C@H](CCC(=O)O)NC(=O)[C@@H](NC(=O)[C@H](C)NC(=O)[C@@H]1CSSC[C@H](NC(=O)[C@H](CCCNC(=N)N)NC(=O)CC[C@H](NC(=O)CCCCCCCCCCCCCCCCCCC(=O)O)C(=O)O)C(=O)NCC(=O)N[C@@H]([C@@H](C)O)C(=O)N[C@@H](C)C(=O)N[C@@H]([C@@H](C)O)C(=O)N1)[C@@H](C)O [Compound 36, [19CD]-isoGlu-R-C( )-GTAT-C( )-ATERLAHFLERSSF-Gly(Me)-A-Ile(Me)-LSSTEVGSSTP-NH2] ({C20 diacid-γGlu}-RCGTATCATERLAHFLERSSF[Sar]A[NMeI]LSSTEVGSSTP-NH2; disulfide 2-7)
2 | 0.15 | 0.06 | A (A = >90%) | A (A = >90%) | A (A = >90%) | B (B = 70-90%) |  |  |  |  | CC[C@H](C)[C@@H](C(=O)N[C@@H](CC(C)C)C(=O)N[C@@H](CO)C(=O)N[C@@H](CO)C(=O)N[C@H](C(=O)N[C@@H](CCC(=O)O)C(=O)N[C@H](C(=O)NCC(=O)N[C@@H](CO)C(=O)N[C@@H](CC(N)=O)C(=O)N[C@H](C(=O)N1C[C@H](O)C[C@H]1C(N)=O)[C@@H](C)O)C(C)C)[C@@H](C)O)N(C)C(=O)[C@H](C)NC(=O)CN(C)C(=O)[C@H](Cc1ccccc1)NC(=O)[C@H](CO)NC(=O)[C@H](CO)NC(=O)[C@H](CCCNC(=N)N)NC(=O)[C@H](CCC(N)=O)NC(=O)[C@H](CC(C)C)NC(=O)[C@H](Cc1ccccc1)NC(=O)[C@H](CC(=O)O)NC(=O)[C@H](C)NC(=O)[C@H](CC(C)C)NC(=O)[C@H](CCCNC(=N)N)NC(=O)[C@H](CCC(N)=O)NC(=O)[C@@H](NC(=O)[C@H](C)NC(=O)[C@@H]1CSSC[C@H](NC(=O)[C@H](CCCNC(=N)N)NC(=O)CC[C@H](NC(=O)CCCCCCCCCCCCCCCCCCC(=O)O)C(=O)O)C(=O)N[C@@H](CC(N)=O)C(=O)N[C@@H]([C@@H](C)O)C(=O)N[C@@H](C)C(=O)N[C@@H]([C@@H](C)O)C(=O)N1)[C@@H](C)O [Compound 49, [19CD]-isoGlu-R-C( )-NTAT-C( )-ATQRLADFLQRSSF-Gly(Me)-A-Ile(Me)-LSSTEVGSNT-Hyp-NH2] ({C20 diacid-γGlu}-RCNTATCATQRLADFLQRSSF[Sar]A[NMeI]LSSTEVGSNT[Hyp]-NH2; disulfide 2-7)
3 | 0.08 | 0.11 | A (A = >90%) | A (A = >90%) | A (A = >90%) | B (B = 70-90%) | A (A = >90%) | A (A = >90%) | A (A = >90%) | B (B = 70-90%) | CC[C@H](C)[C@@H](C(=O)N[C@@H](CC(C)C)C(=O)N[C@@H](CO)C(=O)N[C@@H](CO)C(=O)N[C@H](C(=O)N[C@@H](CCC(=O)O)C(=O)N[C@H](C(=O)NCC(=O)N[C@@H](CO)C(=O)N[C@@H](CC(N)=O)C(=O)N[C@H](C(=O)N1C[C@H](O)C[C@H]1C(N)=O)[C@@H](C)O)C(C)C)[C@@H](C)O)N(C)C(=O)[C@H](C)NC(=O)CN(C)C(=O)[C@H](Cc1ccccc1)NC(=O)[C@H](CO)NC(=O)[C@H](CO)NC(=O)[C@H](CCCNC(=N)N)NC(=O)[C@H](CCC(N)=O)NC(=O)[C@H](CC(C)C)NC(=O)[C@H](Cc1ccccc1)NC(=O)[C@H](CCCC(=O)O)NC(=O)[C@H](C)NC(=O)[C@H](CC(C)C)NC(=O)[C@H](CCCNC(=N)N)NC(=O)[C@H](CCC(=O)O)NC(=O)[C@@H](NC(=O)[C@H](C)NC(=O)[C@@H]1CSSC[C@H](NC(=O)[C@H](CCCNC(=N)N)NC(=O)CC[C@H](NC(=O)CCCCCCCCCCCCCCCCCCC(=O)O)C(=O)O)C(=O)NCC(=O)N[C@@H]([C@@H](C)O)C(=O)N[C@@H](C)C(=O)N[C@@H]([C@@H](C)O)C(=O)N1)[C@@H](C)O [Compound 55, [19CD]-isoGlu-R-C( )-GTAT-C( )-ATERLA-Aad-FLQRSSF-Gly(Me)-A-Ile(Me)-LSSTEVGSNT-Hyp-NH2] ({C20 diacid-γGlu}-RCGTATCATERLA[Aad]FLQRSSF[Sar]A[NMeI]LSSTEVGSNT[Hyp]-NH2; disulfide 2-7)
4 | 0.11 | 0.08 | A (A = >90%) | A (A = >90%) | A (A = >90%) | A (A = >90%) | A (A = >90%) | A (A = >90%) | A (A = >90%) | B (B = 70-90%) | CC[C@H](C)[C@@H](C(=O)N[C@@H](CC(C)C)C(=O)N[C@@H](CO)C(=O)N[C@@H](CO)C(=O)N[C@H](C(=O)N[C@@H](CCC(=O)O)C(=O)N[C@H](C(=O)NCC(=O)N[C@@H](CO)C(=O)N[C@@H](CC(N)=O)C(=O)N[C@H](C(=O)N1C[C@H](O)C[C@H]1C(N)=O)[C@@H](C)O)C(C)C)[C@@H](C)O)N(C)C(=O)[C@H](C)NC(=O)CN(C)C(=O)[C@H](Cc1ccccc1)NC(=O)[C@H](CO)NC(=O)[C@H](CO)NC(=O)[C@H](CCCNC(=N)N)NC(=O)[C@H](CCC(N)=O)NC(=O)[C@H](CC(C)C)NC(=O)[C@H](Cc1ccccc1)NC(=O)[C@H](Cc1c[nH]cn1)NC(=O)[C@H](C)NC(=O)[C@H](CC(C)C)NC(=O)[C@H](CCCNC(=N)N)NC(=O)[C@H](CCC(=O)O)NC(=O)[C@@H](NC(=O)[C@H](C)NC(=O)[C@@H]1CSSC[C@H](NC(=O)[C@H](CCCNC(=N)N)NC(=O)CC[C@H](NC(=O)CCCCCCCCCCCCCCCCCCC(=O)O)C(=O)O)C(=O)N[C@@H](CCC(N)=O)C(=O)N[C@@H]([C@@H](C)O)C(=O)N[C@@H](C)C(=O)N[C@@H]([C@@H](C)O)C(=O)N1)[C@@H](C)O [Compound 57, [19CD]-isoGlu-R-C( )-QTAT-C( )-ATERLAHFLQRSSF-Gly(Me)-A-Ile(Me)-LSSTEVGSNT-Hyp-NH2] ({C20 diacid-γGlu}-RCQTATCATERLAHFLQRSSF[Sar]A[NMeI]LSSTEVGSNT[Hyp]-NH2; disulfide 2-7)
